Laboratory results from US20130072385A1, “METHODS FOR DELAYING BUD BREAK BY APPLYING ABA ANALOGS” (priority 2011, published 2013).

Key:
[1] = system: Cabernet Franc grapevines; experiment: Fall foliar spray of mature Cabernet Franc grapevines, bud break the following spring (BBCH rating); format: in vivo; design: key to Average BBCH rating of bud developmental stages: BBCH scale: 1 = first bud swelling, 99 = defoliated, re-entering dormancy; conditions: for Average BBCH rating of bud developmental stages: 300 ppm in 0.1% Brij 98, fall foliar application; for Delay of bud break the following spring / Impact on bud mortality: foliar application at about 0.125 grams per vine in the fall
Method: (§1) A study was conducted to determine the effect of spraying grapevines with ABA analogs in the fail on bud break the following spring. Mature Cabernet Franc grapevines growing in a research vineyard in Benton Harbor, Mich. were sprayed to drip with surfactant alone or surfactant and ABA analog on Oct. 25, 2008. Vines were sprayed with approximately 300 ml (113 grams ABA analog/acre) applied to each of 9 vines per treatment arranged in three replicates of three vines each. The following spring prior to bud break the vines were pruned to 3-6 buds per spur and bud break of 40 buds per vine (4 buds on each of 10 spurs) was rated periodically using the BBCH (Biologische Bundesanstalt, Bundessortenamt und Chemische Industrie) scale of development where a rating of 1 represents the first sign of bud swelling and 99 represents a defoliated plant re-entering dormancy at the end of the growing season.

[2] = system: Cabernet Franc grapevines; experiment: Fall foliar spray of Cabernet Franc grapevines, fruit maturity the following fall (juice pH and Brix); format: in vivo; conditions: for Brix of juice / pH of juice: 300 ppm in 0.1% Brij 98, fall foliar application, grapes harvested on Oct. 24, 2009; for Effect on maturation of the following crop of grapes (juice pH and Brix): foliar application at about 0.125 grams per vine in the fall
Method: as §1
When the control fruit had reached maturity three clusters of grapes were randomly harvested from each 3 vine replicate. Brix and pH measurements were made of the juice expressed by hand squeezing the grape clusters. Both the pH and Brix readings were lower for the grapes from the ABA analog treated vines indicating a delay of fruit maturity.

[3] = system: Cabernet Franc grapevines; experiment: Fall foliar spray of Cabernet Franc grapevines with PBI-425 or PBI-524, broken buds the following spring; format: in vivo; conditions: for Average number of broken buds per vine: Apr. 11, 2012; for Effect on bud break the following spring / Impact on bud mortality: foliar application at about 0.03-0.3 grams per vine in the fall
Method: A study was conducted to determine the elect of spraying Cabernet Franc grapevines with ABA analog PBI-425 or PBI-524 in the fall on bud break the following spring. Mature Cabernet Franc grapevines growing in a research vineyard in Benton Harbor, Mich. were sprayed to drip with surfactant alone or surfactant and ABA analog on Oct. 21, 2011. Vines were sprayed with approximately 300 ml applied to each of 9 vines per treatment arranged in three replicates of three vines each. Applied at about 100 gallons per acre 100 ppm treatment represents 37.8 grams per acre and 1000 ppm represents 378.4 grams per acre. In the spring after treatment prior to bud break the vines were pruned to 3-6 buds per spur and bud break of the entire vine was determined in the spring.

[4] = system: Concord grape vines; experiment: Spring spray of eco-dormant field grown Concord grape vines, bud break; format: in vivo, Concord grapevines; conditions: 100 ppm PBI-429 plus 0.5% Brij 98, sprayed 2 times in spring
Method: A study was conducted to evaluate the effect of spraying eco-dormant Concord grape vines with ABA or ABA analog plus surfactants on bud break. Mature field grown Concord grape vines were sprayed to runoff 2 times in the spring after pruning and before bud swell. Three replicates of 3 vines each were treated with each treatment solution. Treatments were arranged in a randomized complete block design down a single vineyard row, Bud break was monitored by counting the number of broken buds of the distal 5 buds on 4 proximal canes on the middle vine of each 3 vine replicate. Bud break was only very slightly delayed by any of the treatments compared to the water sprayed control (Table 1).

[5] = system: Concord grapevines; experiment: Repeated spray of potted Concord grapevines during the bud break period; format: in vivo; conditions: for Average number of broken buds per vine: 100 ppm in 0.05% Silwet L77, repeated spray
Method: A study was conducted to determine the effect of spraying Concord grapevines with ABA or ABA analog PBI-429 during bud break. Potted concord grapevines were placed in greenhouse conditions to promote bud break and the vines were repeatedly sprayed with ABA or ABA analog solutions. The vines were sprayed 2, 4, 8, 12 and 14 days after exposure of the vines into bud break promoting temperatures. Bud break was rated 6, 7, 8, 11, 12, 13, 14, 15, 19 and 20 days after vines were placed in warm bud break promoting conditions.

[6] = system: Concord grapevines; experiment: Fall soil drench of potted Concord grapevines, bud break the following spring; format: in vivo; design: key to Average rating of bud break (1-6 scale): 1 = no growth to 6 = three or more leaves showing; conditions: for Average rating of bud break (1-6 scale): 100 ppm (100 mg/pot) fall soil drench
Method: A study was conducted to determine the effect of application of ABA or ABA analog as a soil drench in the fall on bud break of potted Concord grapevines the following spring. Two year old eco-dormant Concord grapevines were obtained from a Concord Nurseries in the spring. Bare-root vines were planted in 14 liter pots filled with Promix BX (available from Premier Horticulture Inc. Quakertown, Pa.) and grown outside for about 5 months (May October) prior to treatment. Plants received irrigation as needed and fertilized weekly (1 g/L all purpose fertilizer 20-20-20, The Scotts Company, Marysville, Ohio). Uniform plants were selected for the study. A total of 1000 mL of water or chemical solution was applied to the soil of each plant.
After chemical treatment, the ten replicate plants per treatment were arranged in a randomized complete block experimental design. The potted vines were surrounded by bark chips the depth of the soil in the pot to insulate the roots and prevent cold damage. The plants became dormant for the winter. In the following spring the vines were pruned to 5 buds per vine before bud break and bud break was monitored over time (Table 4). The buds were rated for bud break periodically on a scale from 1 for no growth to 6 for three or more leaves showing
Potted Concord grapevines were treated with 1000 mL water, solution containing 1000 mg ABA or solution containing 100 mg PBI-429. The dose of RBI-429 was used at one-tenth of ABA dose based on the preliminary results.

[7] = system: PF-11 nectarine trees; experiment: Fall foliar spray of PF-11 nectarine trees, bud break the following spring; format: in vivo
Method: (§2) A study was conducted to determine the effect of spraying nectarine trees with ABA or ABA analogs in the fall on bud break the following spring. Mature PF-11 nectarine trees were sprayed to drip with surfactant alone or surfactant and ABA or ABA analog on Oct. 19, 2009. Trees were sprayed with approximately 500 ml (20.5 grams ABA analog/acre) applied to each of 6 trees per treatment arranged in a randomized complete block design. The following spring bud break on pre-selected branches was monitored.

[8] = system: PF-11 nectarine trees; experiment: Fall foliar spray of PF-11 nectarine trees, fruit number per tree the following spring; format: in vivo
Method: as §2

[9] = 100 ppm in 0.1% Silwet Brij 98, fall foliar application

For `C#CC1(C)CC(=O)C=C(C)C1(O)C=CC(C)=CC(=O)O` (racemic) [PBI-524], the “Average BBCH rating of bud developmental stages” value (shortened to “Average BBCH rating”) ([1]; May 1, 2009) was 0.0, the “Average BBCH rating” value ([1]; May 5) was 0.4 and the “Average BBCH rating” value ([1]; May 12) was 1.0. For the same compound, the “Average BBCH rating” value ([1]; May 21) was 3.7, the “Average BBCH rating” value ([1]; May 28) was 6.7 and the “Delay of bud break the following spring” value [1] was “about 15 days”. The “Impact on bud mortality” value [1] was “without apparent impact on bud mortality”, the Brix of juice [2] was 19.37 and the pH of juice [2] was 3.14. The “Effect on maturation of the following crop of grapes (juice pH and Brix)” value [2] was “delayed maturation”, the “Average number of broken buds per vine” value [3, 9] was 13 and the “Average number of broken buds per vine” value ([3]; 1000 ppm in 0.1% Silwet Brij 98, fall foliar application) was 2. For the same compound, the “Effect on bud break the following spring” value [3] was “delayed bud break” and the “Impact on bud mortality” value [3] was “without apparent impact on bud mortality”.
`C#CC1(C)CC(=O)C=C(C)C1(O)C=CC(C)=CC(=O)O` (centres unmarked) [PBI-425] was tested, and the “Average number of broken buds per vine” value [3, 9] was 11, the “Effect on bud break the following spring” value [3] was “delayed bud break” and the “Impact on bud mortality” value [3] was “without apparent impact on bud mortality”.
In the case of `C#CC1(C)CC(=O)C=C(C)C1(O)/C=C/C(C)=C\C(=O)OC` (centres unmarked) [PBI-429, 8′acetylene-ABA methyl ester], the “Average percent broken buds” value ([4]; April 24) is reported as 8%, the “Average percent broken buds” value ([4]; April 30) is reported as 18% and the “Average number of broken buds per vine” value ([5]; 6 days after warming) is reported as 0.7. For the same compound, the “Average number of broken buds per vine” value ([5]; 7 days after warming) was 0.7, the “Average number of broken buds per vine” value ([5]; 8 days after warming) was 1.7 and the “Average number of broken buds per vine” value ([5]; 11 days after warming) was 2.5. For the same compound, the “Average number of broken buds per vine” value ([5]; 12 days after warming) was 2.5, the “Average number of broken buds per vine” value ([5]; 13 days after warming) was 3.0 and the “Average number of broken buds per vine” value ([5]; 14 days after warming) was 3.0. For the same compound, the “Average number of broken buds per vine” value ([5]; 15 days after warming) was 4.0, the “Average number of broken buds per vine” value ([5]; 19 days after warming) was 4.3 and the “Average number of broken buds per vine” value ([5]; 20 days after warming) was 4.3. For the same compound, the “Effect on average number of broken buds over time” value ([5]; repeated spray application during the bud break period) was “not significantly impacted”, the “Delay of bud break compared to ABA treated or untreated vines” value ([6]; 100 mg fall soil drench) was “about 2 weeks” and the “Average rating of bud break (1-6 scale)” value ([6]; Apr. 23, 2008) was 1.0. For the same compound, the “Average rating of bud break (1-6 scale)” value ([6]; April 28) was 1.0, the “Average rating of bud break (1-6 scale)” value ([6]; April 30) was 1.0 and the “Average rating of bud break (1-6 scale)” value ([6]; May 2) was 1.0. The “Average rating of bud break (1-6 scale)” value ([6]; May 5) was 1.0, the “Average rating of bud break (1-6 scale)” value ([6]; May 7) was 1.0 and the “Average rating of bud break (1-6 scale)” value ([6]; May 9) was 1.0. For the same compound, the “Average rating of bud break (1-6 scale)” value ([6]; May 12) was 1.0, the “Average rating of bud break (1-6 scale)” value ([6]; May 14) was 1.0 and the “Average rating of bud break (1-6 scale)” value ([6]; May 16) was 1.0. The “Average rating of bud break (1-6 scale)” value ([6]; May 19) was 1.2, the “Average rating of bud break (1-6 scale)” value ([6]; May 21) was 1.2 and the “Average rating of bud break (1-6 scale)” value ([6]; May 23) was 1.8. The “Average rating of bud break (1-6 scale)” value ([6]; May 28) was 2.7, the “Average BBCH rating” value ([1]; May 1, 2009) was 0.1 and the “Average BBCH rating” value ([1]; May 5) was 0.4. For the same compound, the “Average BBCH rating” value ([1]; May 12) was 1.0, the “Average BBCH rating” value ([1]; May 21) was 3.2 and the “Average BBCH rating” value ([1]; May 28) was 6.0. The “Delay of bud break the following spring” value [1] was “about 15 days”, the “Impact on bud mortality” value [1] was “without apparent impact on bud mortality” and the Brix of juice [2] was 19.32. For the same compound, the pH of juice [2] was 3.16, the “Effect on maturation of the following crop of grapes (juice pH and Brix)” value [2] was “delayed maturation” and the “Potency relative to ABA in delaying bud break” value ([7]; 100 ppm PBI-429 versus 10,000 ppm ABA, fall foliar application) was “about 100 times”. The “Percentage of broken floral buds” value ([7]; 100 ppm in 0.1% Brij 98, fall foliar application, April 8) was 56 Percentage, the “Average number of fruit per tree” value ([8]; 100 ppm in 0.1% Brij 98, fall foliar application, June 10) was 75 and the “Effect on number of fruit per tree the following spring” value ([8]; fall foliar application) was “reduced the number of fruit per tree”.
